The source made the active and inactive calls. The calls are words filed in the database; no cut-off is given here.
Experiments:
RAW264.7 [1] = experiment: Cytotoxicity against mouse RAW264.7 cells assessed as reduction in cell viability at 60 uM measured after 24 hrs by MTT assay; assay type: cell-based; details: raw264.7, 24 h
RAW264.7 [2] = experiment: Antiinflammatory activity in mouse RAW264.7 cells assessed as inhibition of LPS-induced NO production at 10 uM preincubated for 2 hrs followed by LPS stimulation and measured after 24 hrs by Griess method relative to control; assay type: functional; details: time 26 hrs
Mus musculus [3] = experiment: Antiinflammatory activity in CCl4-induced C57BL/6J mouse model of liver injury assessed as reduction in liver damage at 50 to 200 mg/kg administered daily for 7 days followed by CCl4 addition and measured after 24 hrs by H and E staining based microscopic analysis; assay type: functional, organism-based; details: dose 50-200 mg/kg, time 8.0 day
Mus musculus [4] = experiment: Antiinflammatory activity in CCl4-induced C57BL/6J mouse model of liver injury assessed as reduction in TNFalpha expression administered daily for 7 days followed by CCl4 addition and measured after 24 hrs by ELISA; assay type: functional, organism-based; details: dose 50-200 mg/kg, time 8.0 day
RAW264.7 [5] = experiment: Antiinflammatory activity in mouse RAW264.7 cells assessed as inhibition of LPS-induced TNFalpha production preincubated for 1 hr followed by LPS stimulation and measured after 22 hrs by ELISA; assay type: functional, cell-based; details: dose 1.25-20 µM, time 23.0 hrs
RAW264.7 [6] = experiment: Antiinflammatory activity in mouse RAW264.7 cells assessed as inhibition of LPS-induced COX2 expression preincubated for 1 hr followed by LPS stimulation and measured after 24 hrs by Western blot analysis; assay type: functional, cell-based; details: dose 5-20 µM, time 25.0 hrs
Mus musculus [7] = experiment: Antiinflammatory activity in CCl4-induced C57BL/6J mouse model of liver injury assessed as reduction in IL1beta expression administered daily for 7 days followed by CCl4 addition and measured after 24 hrs by ELISA; assay type: functional, organism-based; details: dose 50-200 mg/kg, time 8.0 day
RAW264.7 [8] = experiment: Antiinflammatory activity in mouse RAW264.7 cells assessed as inhibition of LPS-induced IL1beta production at 10 uM preincubated for 1 hr followed by LPS stimulation and measured after 22 hrs by ELISA; assay type: functional, cell-based; details: time 23.0 hrs
RAW264.7 [9] = experiment: Antiinflammatory activity in mouse RAW264.7 cells assessed as inhibition of LPS-induced IL6 production at 10 uM preincubated for 1 hr followed by LPS stimulation and measured after 22 hrs by ELISA; assay type: functional, cell-based; details: time 23.0 hrs
RAW264.7 [10] = experiment: Antiinflammatory activity in mouse RAW264.7 cells assessed as inhibition of LPS-induced TNFalpha production at 10 uM preincubated for 1 hr followed by LPS stimulation and measured after 22 hrs by ELISA; assay type: functional, cell-based; details: time 23.0 hrs
RAW264.7 [11] = experiment: Antiinflammatory activity in mouse RAW264.7 cells assessed as inhibition of LPS-induced IL1beta production preincubated for 1 hr followed by LPS stimulation and measured after 22 hrs by ELISA; assay type: functional, cell-based; details: dose 1.25-20 µM, time 23.0 hrs
RAW264.7 [12] = experiment: Inhibition of LPS-induced NFkappaB activation in mouse RAW264.7 cells assessed as reduction in IkappaBalpha phosphorylation at 5 to 20 uM preincubated for 1 hr followed by LPS-stimulation and measured after 0.5 hrs by Western blot analysis; assay type: cell-based; details: dose 5-20 µM, time 1.5 hrs
Mus musculus [13] = experiment: Antiinflammatory activity in CCl4-induced C57BL/6J mouse model of liver injury assessed as reduction in ALT level administered daily for 7 days followed by CCl4 addition and measured after 24 hrs; assay type: functional, organism-based; details: dose 50-200 mg/kg, time 8.0 day
RAW264.7 [14] = experiment: Antiinflammatory activity in mouse RAW264.7 cells assessed as inhibition of LPS-induced iNOS expression preincubated for 1 hr followed by LPS stimulation and measured after 24 hrs by Western blot analysis; assay type: functional, cell-based; details: dose 5-20 µM, time 25.0 hrs
Mus musculus [15] = experiment: Antiinflammatory activity in CCl4-induced C57BL/6J mouse model of liver injury assessed as reduction in IL6 expression administered daily for 7 days followed by CCl4 addition and measured after 24 hrs by ELISA; assay type: functional, organism-based; details: dose 50-200 mg/kg, time 8.0 day
RAW264.7 [16] = experiment: Antiinflammatory activity in mouse RAW264.7 cells assessed as inhibition of LPS-induced ROS production preincubated for 1 hr followed by LPS stimulation and measured after 24 hrs by DCFH-DA staining based flow cytometry; assay type: functional, cell-based; details: dose 2.5-10 µM, time 25.0 hrs
[17] = Cytotoxicity against mouse RAW264.7 cells assessed as cell viability at 40 uM measured after 24 hrs by MTT assay relative to control; assay type: cell-based
RAW264.7 [18] = experiment: Antiinflammatory activity in mouse RAW264.7 cells assessed as inhibition of LPS-induced IL6 production preincubated for 1 hr followed by LPS stimulation and measured after 22 hrs by ELISA; assay type: functional, cell-based; details: dose 1.25-20 µM, time 23.0 hrs
RAW264.7 [19] = experiment: Antiinflammatory activity in mouse RAW264.7 cells assessed as inhibition of LPS-induced NO production preincubated for 2 hrs followed by LPS stimulation and measured after 24 hrs by Griess method; assay type: functional, cell-based
RAW264.7 [20] = experiment: Inhibition of LPS-induced NFkappaB activation in mouse RAW264.7 cells assessed as reduction in p65 nuclear translocation preincubated for 1 hr followed by LPS-stimulation and measured after 0.5 hrs by Western blot analysis; assay type: cell-based; details: dose 5-20 µM, time 1.5 hrs

IC50 (RAW264.7 [19]) | Compound | Activity (RAW264.7 [1]) | inhibition at 10 µM (RAW264.7 [2]) | Activity (Mus musculus [3]) | Activity (Mus musculus [4]) | inhibition (RAW264.7 [5]) | inhibition (RAW264.7 [6]) | Activity (Mus musculus [7]) | inhibition (RAW264.7 [8]) | inhibition (RAW264.7 [9]) | inhibition (RAW264.7 [10]) | inhibition (RAW264.7 [11]) | inhibition (RAW264.7 [12]) | Activity (Mus musculus [13]) | inhibition (RAW264.7 [14]) | Activity (Mus musculus [15]) | inhibition (RAW264.7 [16]) | viability at 24 h, 40 µM [17] | inhibition (RAW264.7 [18]) | inhibition (RAW264.7 [20])
3.14 µM | CCn1cc(COc2cc(O)c3c(c2)O[C@H](c2ccc(OC)c(O)c2)C/C3=N\O)nn1 | – | 65.1% | – | – | – | – | – | Active | Active | Active | – | – | – | – | – | – | 101% | – | –
15.2 µM | COc1ccc([C@@H]2CC(=O)c3c(O)cc(OCc4cn(C)nn4)cc3O2)cc1O | – | 40% | – | – | – | – | – | Active | Active | Active | – | – | – | – | – | – | 105% | – | –
13.9 µM | CCCCn1cc(COc2cc(O)c3c(c2)O[C@H](c2ccc(OC)c(O)c2)CC3=O)nn1 | – | 49.9% | – | – | – | – | – | Active | Active | Active | – | – | – | – | – | – | 118% | – | –
48.6 µM | COc1ccc([C@@H]2CC(=O)c3c(O)cc(O)cc3O2)cc1O [HESPERETIN] | – | 18.4% | – | – | – | – | – | Active | Active | Active | – | – | – | – | – | – | 121% | – | –
11.9 µM | COc1ccc([C@@H]2CC(=O)c3c(O)cc(OCc4cn(CC5CC5)nn4)cc3O2)cc1O | – | 48.8% | – | – | – | – | – | Active | Active | Active | – | – | – | – | – | – | 87% | – | –

More lines, now with the values behind:

Compound | IC50 (RAW264.7 [19]) | Activity (RAW264.7 [1]) | inhibition at 10 µM (RAW264.7 [2]) | Activity (Mus musculus [3]) | Activity (Mus musculus [4]) | inhibition (RAW264.7 [5]) | inhibition (RAW264.7 [6]) | Activity (Mus musculus [7]) | inhibition (RAW264.7 [8]) | inhibition (RAW264.7 [9]) | inhibition (RAW264.7 [10]) | inhibition (RAW264.7 [11]) | inhibition (RAW264.7 [12]) | Activity (Mus musculus [13]) | inhibition (RAW264.7 [14]) | Activity (Mus musculus [15]) | inhibition (RAW264.7 [16]) | viability at 24 h, 40 µM [17] | inhibition (RAW264.7 [18]) | inhibition (RAW264.7 [20])
CCCn1cc(COc2cc(O)c3c(c2)O[C@H](c2ccc(OC)c(O)c2)C/C3=N\O)nn1 | 2.34 µM | Non-Toxic | 67.5% | Active | Dose-dependent effect | Dose-dependent effect | Dose-dependent effect | Dose-dependent effect | Active | Active | Active | Dose-dependent effect | Active | Dose-dependent effect | Dose-dependent effect | Dose-dependent effect | Dose-dependent effect | 114% | Dose-dependent effect | Dose-dependent effect
COc1ccc([C@@H]2CC(=O)c3c(O)cc(OCc4cn(CC(=O)c5ccc(F)cc5)nn4)cc3O2)cc1O | 15.4 µM | – | 38.5% | – | – | – | – | – | Active | Active | Active | – | – | – | – | – | – | 64% | – | –
COc1ccc([C@@H]2CC(=O)c3c(O)cc(OCc4cn(Cc5cccc(C(F)(F)F)c5)nn4)cc3O2)cc1O | 19.9 µM | – | 35.5% | – | – | – | – | – | Active | Active | Active | – | – | – | – | – | – | 93% | – | –
COc1ccc([C@@H]2CC(=O)c3c(O)cc(OCc4cn(Cc5cccc(C#N)c5)nn4)cc3O2)cc1O | 18 µM | – | 32.9% | – | – | – | – | – | Active | Active | Active | – | – | – | – | – | – | 56% | – | –
